# pIC50: −log10 of the molar value.
# What was measured:
# MAO-B [1] = target: T1, MAO-B (Mus musculus, UniProt Q8BW75); test: MAO-B activity in the mouse brain after oral administration (substrate PE); assay type: in vivo; settings: 2 hours
# T1 construct: MAO activities in the mouse brain after; from tissue
# T1 sequence (Q8BW75 1-520): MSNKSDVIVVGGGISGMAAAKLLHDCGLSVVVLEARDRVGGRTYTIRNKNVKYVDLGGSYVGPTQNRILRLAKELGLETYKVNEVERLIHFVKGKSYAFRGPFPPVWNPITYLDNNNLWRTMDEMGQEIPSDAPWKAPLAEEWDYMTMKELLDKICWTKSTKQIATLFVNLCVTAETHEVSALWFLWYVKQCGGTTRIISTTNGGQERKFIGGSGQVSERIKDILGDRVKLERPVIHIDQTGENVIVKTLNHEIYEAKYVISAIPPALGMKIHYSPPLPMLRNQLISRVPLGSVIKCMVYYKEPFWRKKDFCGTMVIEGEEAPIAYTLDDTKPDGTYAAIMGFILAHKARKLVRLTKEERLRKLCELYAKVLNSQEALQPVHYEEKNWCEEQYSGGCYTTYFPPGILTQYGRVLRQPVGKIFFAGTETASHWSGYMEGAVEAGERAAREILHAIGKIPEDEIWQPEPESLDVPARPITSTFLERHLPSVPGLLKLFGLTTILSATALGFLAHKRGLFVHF
# Method: (§1) Table 3 indicates the MAO activities in the mouse brain following oral administration of the aliphatic propargylamines.
# (§2) of each compound. Striata were dissected from the brain two hours after
# (§3) the administration of the drugs. MAOA and MAOB activities were determined
# Striata were dissected from the brain two
# hours after oral administration of the drugs. MAOB activities were then
# determined immediately. The values were estimated from doseresponse
# dopamine neurons = test: Protection of dopamine neurons against MPTP-induced neurotoxicity in the mice brain; assay type: in vivo, mouse
# Excerpt: Three days later, dopamine levels and dopamine uptake site densities (GBR bindings) were estimated.
# MAO-B [2] = target: T1, MAO-B; test: in vivo; assay type: in vivo; settings: mouse, ip
# Method: Albino Swiss mice were used in this study. The animals were injected intraperitoneally with different doses of the aliphatic propargylamines in 100 μL saline.
# 0.5, 1, 2, 5, 10, 20, 50, 100 mg/Kg. Striata were dissected from the brai
# two hours after i.p. administration of the drugs. MAOA and MAOB activitie
# were determined immediately. The values were estimated from doseresponse
# MAO-A = target: T2, MAO-A (Mus musculus, UniProt Q64133); assay type: in vivo; settings: mouse, in vivo, po, 10 mg/kg
# T2 construct: MAO activities in the mouse brain after; from tissue
# T2 sequence (Q64133 1-526): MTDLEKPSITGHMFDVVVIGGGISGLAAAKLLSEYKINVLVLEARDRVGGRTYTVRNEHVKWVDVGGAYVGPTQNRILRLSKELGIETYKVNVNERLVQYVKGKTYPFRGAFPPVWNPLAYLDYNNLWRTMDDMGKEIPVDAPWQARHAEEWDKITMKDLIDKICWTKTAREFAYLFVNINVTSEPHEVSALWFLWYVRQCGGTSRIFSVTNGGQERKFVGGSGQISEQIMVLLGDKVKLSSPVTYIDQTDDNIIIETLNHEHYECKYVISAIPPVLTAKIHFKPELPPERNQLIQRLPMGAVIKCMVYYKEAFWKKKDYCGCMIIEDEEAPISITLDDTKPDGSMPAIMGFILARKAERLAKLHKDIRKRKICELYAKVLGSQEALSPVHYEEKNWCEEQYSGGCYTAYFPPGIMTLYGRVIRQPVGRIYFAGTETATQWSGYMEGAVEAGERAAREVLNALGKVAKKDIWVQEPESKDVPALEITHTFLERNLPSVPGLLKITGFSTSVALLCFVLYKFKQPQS
# Method: as §1, §2, §3
# MAO-B [3] = target: T3, MAO-B (Rattus norvegicus, UniProt P19643); test: biochemical; assay type: biochemical
# T3 sequence (P19643 1-520): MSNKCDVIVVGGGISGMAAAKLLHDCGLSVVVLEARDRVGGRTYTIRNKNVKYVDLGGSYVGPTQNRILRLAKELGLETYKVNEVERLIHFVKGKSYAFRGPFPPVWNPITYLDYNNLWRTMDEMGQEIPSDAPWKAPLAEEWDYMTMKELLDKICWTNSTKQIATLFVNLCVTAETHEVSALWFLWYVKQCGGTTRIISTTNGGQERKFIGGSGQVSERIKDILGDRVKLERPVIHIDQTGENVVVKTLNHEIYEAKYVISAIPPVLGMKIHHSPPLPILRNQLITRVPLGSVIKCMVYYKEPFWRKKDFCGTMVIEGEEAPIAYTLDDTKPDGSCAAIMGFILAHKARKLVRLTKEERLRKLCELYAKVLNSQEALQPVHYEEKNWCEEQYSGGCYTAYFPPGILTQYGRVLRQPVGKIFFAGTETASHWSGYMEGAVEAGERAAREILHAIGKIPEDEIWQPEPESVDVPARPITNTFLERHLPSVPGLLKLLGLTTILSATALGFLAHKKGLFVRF
# Method: The aliphatic propargylamine inhibitors (from 1×10^-10 M to 1×10^-4 M) were preincubated with the MAO for 20 min. at ambient room temperature and then the residual enzyme activities were determined by addition of the substrates, followed by further incubation at 37° C. for 30 min. The enzymatic reactions were terminated by the addition of citric acid and the aldehyde products were extracted with toluene: ethyl acetate (1:1, v/v) and the radio-activities assessed in a scintillation counter.
# noradrenaline neurons = test: Protection of noradrenaline neurons against DSP-4 induced neurotoxicity in the mouse brain; assay type: in vivo; settings: Experiment I, pretreatment 10 mg/Kg i.p., mean ± S.E.
# Method: The analyses of DSP-4-induced neurotoxic effects were conducted in accordance with […] and Jonsson (Eur. J. Pharmacol. 103 (1984), 269-278), hereby incorporated by reference. Mice were pretreated with M-2-PP (10 mg/Kg) and 2-HxMP (10 mg/Kg) or saline as control via i.p. administration and one hour later challenged with a single i.p. dose of DSP-4 (DSP-4: […] One week after treatment noradrenaline content in the putamen of these mice was analyzed. The results which are shown in Table 5 are mean ± S.E. of five animals in each group.
# [4] = mouse, in vivo
# Excerpt: The acute toxicity of these compounds is quite low. […]. The aliphatic side-chains of these aliphatic propargyl compounds are similar to those that exist in endogenous lipids and fatty acids and such aliphatic chains are readily oxidized in vivo. […]
smiles,measurement,setting,value
"C#CCN(C)C(C)CCC.Cl.O=C(O)C(=O)O (stereo not shown) [Example M-2-PP, N-(2-Pentyl)-N-methylpropargylamine hydrochloride and oxalate]",ED50,"MAO-B [1]; mouse, oral, average of 5 animals per dose, estimated from dose response curves, read-out: Inhibition of MAO-B activity, dose response (ID50)",1 mg/kg
same,Relative activity PE,"MAO-B [1]; oral 10 mg/Kg, PE (1.9 × 10^-5 M), mean ± standard error, saline = 100",31 ± 4%
same,Dopamine,dopamine neurons; 0.5 mg/Kg + MPTP,8.3 μg/gm
same,Dopamine binding site,dopamine neurons; 0.5 mg/Kg + MPTP,312 pmol/mg
same,Dopamine,dopamine neurons; 2.5 mg/Kg + MPTP,8.9 μg/gm
same,Dopamine binding site,dopamine neurons; 2.5 mg/Kg + MPTP,306 pmol/mg
same,MAO-B ID50 (mg/Kg) / IC50 (1 × 10^-6 M),MAO-B [2]; in vivo,2.5
same,inhibition of brain MAO-B activity in vivo (in words),MAO-B [2]; in vivo,more potent than the longer chain analogs at inhibiting brain MAO-B activity
same,Ratio MAO-A/MAO-B,"MAO-B [2]; in vivo, 120 min",50
same,ED50,"MAO-B [2]; 2 h, read-out: PE ID50",0.5 mg/kg
same,Relative activity 5-HT,MAO-A,89 ± 15
same,Ratio MAO-A/MAO-B,"MAO-B [3]; rat, liver mitochondrial membranes",50
same,pIC50,MAO-B [3]; read-out: PE IC50,6.70
same,Noradrenaline in putamen,"noradrenaline neurons; DSP-4 50 mg/Kg, p < 0.01 vs DSP-4 (DSP-4 alone 33)",90 ± 0.07%
same,Noradrenaline in putamen,"noradrenaline neurons; saline, no DSP-4",111 ± 0.09%
same,fatality after oral administration,[4],no fatality

# Source: patent US5508311A, “Aliphatic propargylamines as selective MAO-B inhibitors and as neuroprotective agents” (University of Saskatchewan, priority 1993, dated 1996)
